From US20220241376A1, “METHOD FOR DECREASING ADVERSE-EFFECTS OF INTERFERON” (ENYO PHARMA, priority 2019, published 2022)

Test system: patients chronically infected with HBV
Assay: 4-week clinical treatment combining weekly sub-cutaneous pegylated IFNα2a (PEG-IFN) with daily oral EYP001a or placebo: treatment emergent adverse events
Details: compared with Placebo + IFN; significant differences (Table 2)

O=C(O)c1cc2c(Cl)c(N3CCN(S(=O)(=O)c4c(Cl)cccc4Cl)CC3)ccc2o1 [EYP001a]
frequency of flu-like AE when IFN treatment was combined with EYP001: lower up to three times less
